Source: patent publication US20130252959A1, “NITRIC OXIDE DONORS IN THERAPY OF NITRIC OXIDE DEFICIENCY-INDUCED DISTURBANCES OF CEREBRAL MICROCIRCULATION” (West-Falische Wilhelms-Universitat Munster, priority 2010, published 2013)
Entries after “also recorded” stand apart in the source; their conditions may differ.

Key:
CVS and ischemia = details: intrathecal, local or intraventricular application; humans or laboratory animal; cited from earlier work
[1] = system: patients with SAH after aneurysmal rupture; test: Clinical outcome by modified NIH-SS and modified Rankin Scale at least three months after discharge; type: in vivo, human
Excerpt: The National Institutes of Health stroke scale (NIH-SS) is a graded neurological examination that assesses speech, language cognition, inattention, visual field abnormalities, motor and sensory impairments, and ataxia. The scale was developed for use in acute-stroke therapy trials and has since been widely used as a standard part of the assessment in clinical trials. This scale, along with many others, has been evaluated in its clinical usefulness in the assessment of the stroke patient. The NIH-SS permits a high-resolution evaluation of a patient's neurological status. To obtain the finding on the NIH-SS, various neurological aspects are investigated and assigned point scores. The total point score is a measure of the severity of the symptoms of stroke, the point score increasing with the severity of the symptoms. This rating scale is also suitable for monitoring the course of the symptoms after stroke and for quantifying the success of any treatment used. In general, it is possible to establish a correlation between the size of the infarct and the severity of the stroke as quantified by the stroke scale.
Rating scales such as the NIH-SS or the modified Rankin scale are generally used for the quantitative evaluation of the severity of a cerebral disorder, whether acute or under treatment.
CCT at the beginning and after treatment were analyzed independently by two experienced neuroradiologists and were scanned for development of delayed brain infarction. At least three months after discharge a modified NIH-SS and a modified Rankin Scale (mRS) for clinical follow up was assessed.
83 patients admitted to the Intensive Care Unit of the University Hospital of Munster, Germany, after spontaneous aneurysmal SAH were registered in an observational study. Seven patients died in the first 124 hours after admission, without detected CVS probably related to malignant brain edema and severity of initial SAH. These patients were excluded from further evaluation.
Out of 76 individuals 27 patients received Molsidomine i.v. in an individually up-titrated dosage with a target quantity of 3.5-10 mg/h dependent on systemic circulation reactions. The remaining 49 patients received standard therapy.
After a minimum of three months the modified NIH and modified Rankin status were determined in order to control clinical outcome of patients (NIH-SS and mRS).

[2] = system: patients with SAH after aneurysmal rupture; test: CVS detected by TCD (trans-cranial doppler); type: in vivo, human
Excerpt: TCD (trans-cranial doppler) is a diagnostic procedure using ultrasound waves to measure blood flow through the major blood vessels of the brain. In particular, the purpose of this test is to detect any narrowing or blockage in arteries located at the base of the brain that may decrease or stop the flow of blood to the brain and increase blood flow velocities according to narrowed vessel diameter. The test is most useful at detecting decreased blood flow through narrow areas inside blood vessels. TCDs are especially useful for monitoring blood flow in the brain of stroke patients who are affected by brain swelling and vasospasm (which are cerebral blood vessel spasms).
The treatment with Molsidomine was applied if vasospasm was detected by TCD (mean flow […] resp. Lindegaard-Index >3) or DSA (narrowing of vessel diameter >50%).

[3] = system: patients with SAH after aneurysmal rupture; test: Side effects and monitoring of blood pressure (MAP), ICP and blood under Molsidomine i.v.
Description: In both groups blood pressure, intracranial pressure (ICP) and saturation measurement of blood oxygen were observed continuously. TCD was performed daily or on demand with investigation of the internal carotid artery (ACI), medial cerebral artery (MCA), anterior cerebral artery (ACA) and basilar artery (BA). For monitoring the clinical condition the GCS score (Glasgow Coma Score) was determined per hour
The drug used contains Molsidomine, as supplied by Sanofi-Aventis, Germany, in ampullae with 2 mg/molsidomine (Corvaton®). The dosage of Molsidomine was adapted to the systemic blood pressure.
The dosage was reduced if the MAP dropped below 65 mmHg despite infusion therapy (HES 6-10%) or a mild Arterenol® therapy (max dosage Arterenol® 0.1-0.2 μg/h, preferably at a dose of 0.1-0.3 mg/h or a dose of 0.1-0.2 μg/kg/min.). With increased need for Arterenol® the dosage of Molsidomine was reduced accordingly. Patients with cardiac low-output failure induced by preexistent cardiac failure, stop of perfusion during acute SAH itself or other reasons like sepsis received Molsidomine up-titrated in highest possible amount based on cardiac treatment or the treatment was interrupted for maximal 48 hours if Arterenol®-dosage escalated.
The treatment with Molsidimine was continued (either i.v. or subsequent orally 4×8 mg ret.) until mean flows in TCD were normalized. The duration of Molsodomine application was at least 8 days according to inclusion criteria: Appearance or presence of detectable CVS.

[4] = system: patients with SAH after aneurysmal rupture; test: Spasm (CVS) related brain infarcts on CCT in SAH patients, Molsidomine in addition to standard therapy vs standard Nimodipine therapy; type: in vivo, human
Description: CCT at the beginning and after treatment were analyzed independently by two experienced neuroradiologists and were scanned for development of delayed brain infarction. At least three months after discharge a modified NIH-SS and a modified Rankin Scale (mRS) for clinical follow up was assessed. 83 patients admitted to the Intensive Care Unit of the University Hospital of Munster, Germany, after spontaneous aneurysmal SAH were registered in an observational study. […] These patients were excluded from further evaluation. […] Out of 76 individuals 27 patients received Molsidomine i.v. in an individually up-titrated dosage with a target quantity of 3.5-10 mg/h dependent on systemic circulation reactions. […] Within 24 h after admission to the ICU patients were treated with coil embolization and/or clipping. […] Appearance of CVS. Male and female patients with an age of 18 years and written informed consent for the additional application of Molsidomine. Spontaneous SAH after aneurysmal rupture and a clinical stage of Hunt and Hess grade Ito V. Exclusion criteria for patients were: No detected CVS. […] CCT and DSA images were independently reported by two experienced neuroradiologists for infarction and vasospasm. CVS related infarcts were diagnosed if hypodense lesions could be detected 72 h or later after therapeutic intervention or operation in comparison to the 24 h control CCT scan and being accompanied by clinical deterioration due to CVS or positive Doppler ultrasound or CVS in DSA.

[5] = after oral administration; cited from earlier work
[6] = system: rat cerebral arterioles and venules; details: He-Ne laser; cited from earlier work
[7] = system: spontaneously hypertensive rats (SHRs); details: cited from earlier work
[8] = in vivo; cited from earlier work
SAH group = details: administered 48 hours after SAH was induced; cited from earlier work
CVS = details: cited from earlier work
[9] = system: patients after brain hemorrhage, in particular SAH; details: under Nimodipine therapy; cited from earlier work
[10] = infusion 3 min after MCA occlusion

Structure (SMILES): O=[N+]([O-])OCC(CO[N+](=O)[O-])O[N+](=O)[O-] [GTN, nitroglycerin]
- effect on CVS and ischemia (CVS and ischemia): good prophylactic effect on CVS and ischemia

Structure (SMILES): CCOC(=O)[N-]c1c[n+](N2CCOCC2)no1 [Molsidomine, N-ethoxycarbonyl-3-morpholinosydnonimine]
- Mean NIH >3 months (without deaths) ([1]; Hunt & Hess grade III°): 3.62
- Mean mRS >3 months ([1]; Hunt & Hess grade III°): 1.75
- Mean NIH >3 months (without deaths) ([1]; Hunt & Hess grade II°): 1
- Mean mRS >3 months ([1]; Hunt & Hess grade II°): 1
- Mean NIH >3 months (without deaths) ([1]; Hunt & Hess grade IV°): 3.8
- Mean mRS >3 months ([1]; Hunt & Hess grade IV°): 1.6
- Mean NIH >3 months (without deaths) ([1]; Hunt & Hess grade I°): 0
- Mean mRS >3 months ([1]; Hunt & Hess grade I°): 1.75
- Mean NIH >3 months (without deaths) ([1]; Hunt & Hess grade V°): 17
- Mean mRS >3 months ([1]; Hunt & Hess grade V°): 4
- clinical condition and long term outcome in the follow up ([1]; SAH-survivors): impressive improvement of clinical condition and long term outcome
- clinical deterioration ([1]; SAH-survivors): no clinical deterioration
- patients partly in work process again or to be reintegrated soon ([1]; follow up, normally approx. 5% return to work): 5/27
- effect in terminating CVS ([2]; judged from equal number of intra-arterial Nimodipine treatments per individual): weak effect
- TCD-values (flow velocities) ([2]; under Molsidomine treatment): trend in Transcranial Doppeler (TCD)-values towards normal velocities
- adverse / side effects ([3]; Molsidomine i.v., target 3.5-10 mg/h): No adverse side effects were observed; also recorded: did not show any relevant side effects; also recorded: no serious, untreatable (i.e. severe hypotension) adverse effects were observed
- depression of MAP, maximum ([3]; even with higher dosage): ≤ 10 mmHg
- depression of blood pressure (systolic) ([3]; even with higher dosage): 10-20 mmHg
- effect of fast reduction of dosage ([3]; regredient after increased Molsidomine levels): on/off phenomena or a rebound
- Blood stains ([3]; under Molsidomine): normal
- ICP ([3]; under Molsidomine): did not increase for short or longer periods
- MAP kept ([3]; under Molsidomine): 65-70 mmHg
- Spasmus related infarcts, Infarction (number of patients) ([4]; Hunt & Hess grade III°): 1
- Spasmus related infarcts, Infarction (number of patients) ([4]; Hunt & Hess grade II°): 0
- Spasmus related infarcts, Infarction (number of patients) ([4]; Hunt & Hess grade IV°): 1
- Spasmus related infarcts, Infarction (number of patients) ([4]; Hunt & Hess grade I°): 1
- Spasmus related infarcts, Infarction (number of patients) ([4]; Hunt & Hess grade V°): 0
- patients who developed CVS associated infarcts (share of group) ([4]; all Hunt & Hess grades): 11.1%
- patients who developed vasospasm associated brain infarctions / patients of the group ([4]; all Hunt & Hess grades): 3/27
- patients who developed CVS associated infarcts (number) ([4]; all Hunt & Hess grades, groups of 49 (Nimodipine) and 27 (Molsidomine)): 3
- absorption [5]: completely absorbed

Structure (SMILES): N=c1c[n+](N2CCOCC2)[n-]o1 [SIN-1, 3-morpholinosydnonimine]
- thrombus formation [6]: antithrombotic effect
- recovery of cerebral blood flow (CBF) ([7]; after MCA occlusion): enhanced the recovery of cerebral blood flow (CBF)
- size of the infarct ([7]; after MCA occlusion): reduced the size of the infarct
- infarct [7, 10]: reduced the infarct
- recovery of CBF and EEG amplitude [7, 10]: enhanced the recovery of CBF and EEG amplitude
- plasma protein binding [8]: no relevant plasma protein binding
- CBF (SAH group): increased CBF

Structure (SMILES): COc1ccccc1Oc1c(NS(=O)(=O)c2ccc(C)cn2)nc(-c2ccnc(-c3nnn[nH]3)c2)nc1OCCO [Clazosentan]
- treatment of CVS (CVS; in vivo): highly efficiency for the treatment of CVS
- long-term outcome or clinical benefit (CVS; multicenter study): failed to show any effect on long-term outcome or clinical benefit

Structure (SMILES): COCCOC(=O)C1=C(C)NC(C)=C(C(=O)OC(C)C)C1c1cccc([N+](=O)[O-])c1 (centres unmarked) [Nimodipine, 1,4-dihydro-2,6-dimethyl-4-(3-nitrophenyl)-3,5-pyridinedicarboxylic acid 2-methoxyethyl 1-methylethyl ester]
- Mean NIH >3 months (without deaths) ([1]; Hunt & Hess grade III°): 10.6
- Mean mRS >3 months ([1]; Hunt & Hess grade III°): 3.75
- Mean NIH >3 months (without deaths) ([1]; Hunt & Hess grade II°): 0
- Mean mRS >3 months ([1]; Hunt & Hess grade II°): 3
- Mean NIH >3 months (without deaths) ([1]; Hunt & Hess grade IV°): 12.3
- Mean mRS >3 months ([1]; Hunt & Hess grade IV°): 4.3
- Mean NIH >3 months (without deaths) ([1]; Hunt & Hess grade I°): 0.5
- Mean mRS >3 months ([1]; Hunt & Hess grade I°): 1.6
- Mean NIH >3 months (without deaths) ([1]; Hunt & Hess grade V°): 38 (2 × exitus)
- Mean mRS >3 months ([1]; Hunt & Hess grade V°): 5.7
- patients who developed vasospasm associated brain infarctions / patients of the group ([4]; all Hunt & Hess grades): 25/49
- associated DINDs [9]: 27-37%
- spasm-associated infarcts [9]: 20-30%
- spasm-associated infarcts detected by advanced CT-technique [9]: up to 50%
- spasm-related mortality and high-grade morbidity [9]: 30-40%
